Experimental findings from patent US20220125051A1, “PRE-HARVEST DESICCATION METHOD” (SYNGENTA CROP PROTECTION AG, priority 2019, published 2022) are described below.

Holding throughout (experiment): Post-emergence efficacy, Method A
Format in all cases: in vivo

Test [1] relates to Amaranthus palmeri (AMAPA). The settings on record: Amaranthus palmeri, post-emergence, 312 h, evaluated after 13 days. The procedure:
(§1) Seeds of a variety of test species were sown in standard soil in pots. After cultivation for 14 days (post-emergence) under controlled conditions in a glasshouse (at 24/16° C., day/night; 14 hours light; 65% humidity), the plants were sprayed with an aqueous spray solution derived from the dissolution of the technical active ingredient formula (I) in a small amount of acetone and a special solvent and emulsifier mixture referred to as IF50 (11.12% Emulsogen EL360 TM+44.44% N-methylpyrrolidone+44.44% Dowanol DPM glycol ether), to create a 50 g/I solution which was then diluted to required concentration using 0.25% or 1% Empicol ESC70 (Sodium lauryl ether sulphate)+1% ammonium sulphate as diluent. The test plants were then grown in a glasshouse under controlled conditions (at 24/16° C., day/night; 14 hours light; 65% humidity) and watered twice daily. After 13 days the test was evaluated (100=total damage to plant; 0=no damage to plant).
(§2) Ipomoea hederacea (IPOHE), Euphorbia heterophylla (EPHHL), Chenopodium album (CHEAL), Amaranthus palmeri (AMAPA), Lolium perenne (LOLPE), Digitaria sanguinalis (DIGSA), Eleusine indica (ELEIN), Echinochloa crus-galli (ECHCG), Setaria faberi (SETFA)

The subject of test [2] is Chenopodium album (CHEAL). As to conditions: Chenopodium album, post-emergence, 312 h, evaluated after 13 days. Here is the method: as §1, §2
Test [3] has as its system Digitaria sanguinalis (DIGSA). As to conditions: Digitaria sanguinalis, post-emergence, 312 h, evaluated after 13 days. The procedure:
as §1, §2

Test [4] has as its system Echinochloa crus-galli (ECHCG). The settings on record: Echinochloa crus-galli, post-emergence, 312 h, evaluated after 13 days. Here is the method: as §1, §2
The next test has as its system Eleusine indica (ELEIN). As to conditions: Eleusine indica, post-emergence, 312 h, evaluated after 13 days. Here is the method:
as §1, §2

The test system of test [5] is Euphorbia heterophylla (EPHHL). As to conditions: Euphorbia heterophylla, post-emergence, 312 h, evaluated after 13 days. Here is the method: as §1, §2
Test [6] relates to Ipomoea hederacea (IPOHE). The settings on record: Ipomoea hederacea, post-emergence, 312 h, evaluated after 13 days. The procedure: as §1, §2
In a further test the test system is Lolium perenne (LOLPE). As to conditions: Lolium perenne, post-emergence, 312 h, evaluated after 13 days. Here is the method:
as §1, §2

In another test the test system is Setaria faberi (SETFA). The settings on record: Setaria faberi, post-emergence, 312 h; Application rate 500 g/Ha; evaluated after 13 days; 100=total damage to plant, 0=no damage to plant; read-out: Control of weed species after post-emergence application, SETFA. Here is the method:
as §1, §2

The mark [7] stands for this setting: Application rate 500 g/Ha, 100=total damage to plant, 0=no damage to plant, read-out: Control of weed species after post-emergence application, AMAPA.
[8] abbreviates: Application rate 500 g/Ha, 100=total damage to plant, 0=no damage to plant, read-out: Control of weed species after post-emergence application, CHEAL.
The mark [9] stands for this setting: Application rate 500 g/Ha, 100=total damage to plant, 0=no damage to plant, read-out: Control of weed species after post-emergence application, DIGSA.
[10] abbreviates: Application rate 500 g/Ha, 100=total damage to plant, 0=no damage to plant, read-out: Control of weed species after post-emergence application, ECHCG.
Where [11] appears, read: Application rate 500 g/Ha, 100=total damage to plant, 0=no damage to plant, read-out: Control of weed species after post-emergence application, ELEIN.
The mark [12] stands for this setting: Application rate 500 g/Ha, 100=total damage to plant, 0=no damage to plant, read-out: Control of weed species after post-emergence application, EPHHL.
Where [13] appears, read: Application rate 500 g/Ha, 100=total damage to plant, 0=no damage to plant, read-out: Control of weed species after post-emergence application, IPOHE.
Where [14] appears, read: Application rate 500 g/Ha, 100=total damage to plant, 0=no damage to plant, read-out: Control of weed species after post-emergence application, LOLPE.

Like-named read-outs stand apart in the source and are kept apart here.

Regarding `COC(=O)C[n+]1ccc(-c2ncccn2)cn1` [Compound A2, methyl 2-(4-pyrimidin-2-ylpyridazin-1-ium-1-yl)acetate bromide], the pest or weed control at 500 g/ha in test [1] (setting [7]) is 60%; in test [2] (setting [8]), 20%; in test [3] (setting [9]), 40%; in [4] (setting [10]), 50%; with Eleusine indica (ELEIN) (setting [11]), 30%; in test [5] (setting [12]), 90%. Further, the pest or weed control at 500 g/ha in [6] (setting [13]) came to 10%; in the test with Lolium perenne (LOLPE) (setting [14]), 0%; with Setaria faberi (SETFA) it was 80%.
In the case of `CCOP(=O)(CC[n+]1ccc(-c2cnccn2)cn1)OCC` [Compound A8], the pest or weed control at 500 g/ha in test [1] (setting [7]) was 10%; in test [2] (setting [8]), 10%; in [3] (setting [9]), 20%; in test [4] (setting [10]) it was 10%; in the test with Eleusine indica (ELEIN) (setting [11]) it was 20%; in test [5] (setting [12]) it was 10%. The results for the pest or weed control at 500 g/ha (in [6] (setting [13]); with Lolium perenne (LOLPE) (setting [14]); in the test on Setaria faberi (SETFA)) were 10%, 0% and 20%, respectively.
In the case of `O=S(=O)(O)CCC[n+]1ccc(-c2cnccn2)cn1` [Compound A10], the pest or weed control at 500 g/ha stood at 100% in test [1] (setting [7]); 100% in test [2] (setting [8]); 60% in [3] (setting [9]); 30% in test [4] (setting [10]); 50% in the test with Eleusine indica (ELEIN) (setting [11]); 100% in test [5] (setting [12]). Moreover, the pest or weed control at 500 g/ha in test [6] (setting [13]) stood at 40%; in the test on Lolium perenne (LOLPE) (setting [14]), 90%; in the test with Setaria faberi (SETFA), 60%.
For `COc1ccnc(-c2cc[n+](CCS(=O)(=O)[O-])nc2)n1` [Compound A13], the pest or weed control at 500 g/ha turned out to be 100% in [1] (setting [7]); 50% in [2] (setting [8]); 70% in test [3] (setting [9]); 50% in test [4] (setting [10]); 100% in the test on Eleusine indica (ELEIN) (setting [11]); 70% in [5] (setting [12]). Also, the pest or weed control at 500 g/ha was determined as 50% in [6] (setting [13]), 50% in the test with Lolium perenne (LOLPE) (setting [14]) and 60% in the test with Setaria faberi (SETFA).
In the case of `COc1cnc(-c2cc[n+](CCS(=O)(=O)[O-])nc2)nc1` [Compound A14], the pest or weed control at 500 g/ha came to 80% in test [1] (setting [7]); 60% in test [2] (setting [8]); 90% in test [3] (setting [9]); 60% in test [4] (setting [10]); 90% in the test with Eleusine indica (ELEIN) (setting [11]); 20% in test [5] (setting [12]). Moreover, the pest or weed control at 500 g/ha in test [6] (setting [13]) stood at 40%; in the test with Lolium perenne (LOLPE) (setting [14]), 40%; in the test on Setaria faberi (SETFA) it was 60%.
With `CN(C)c1ccnc(-c2cc[n+](CCS(=O)(=O)[O-])nc2)n1` [Compound A16], the pest or weed control at 500 g/ha turned out to be 60% in [1] (setting [7]); 30% in test [2] (setting [8]); 50% in [3] (setting [9]); 60% in test [4] (setting [10]); 70% with Eleusine indica (ELEIN) (setting [11]); 50% in [5] (setting [12]). The pest or weed control at 500 g/ha in test [6] (setting [13]) amounted to 40%; with Lolium perenne (LOLPE) (setting [14]) it was 10%; in the test on Setaria faberi (SETFA), 50%.
Consider `O=S(=O)([O-])CC[n+]1ccc(-c2ncc(Cl)cn2)cn1` [Compound A17], for which the pest or weed control at 500 g/ha came out at 100% in test [1] (setting [7]); 30% in test [2] (setting [8]); 60% in test [3] (setting [9]); 40% in test [4] (setting [10]); 60% in the test on Eleusine indica (ELEIN) (setting [11]); 30% in [5] (setting [12]). Further, the pest or weed control at 500 g/ha was determined as 30% in test [6] (setting [13]), 10% in the test with Lolium perenne (LOLPE) (setting [14]) and 40% with Setaria faberi (SETFA).
In the case of `Cc1nccc(-c2cc[n+](CCC(=O)O)nc2)n1` [Compound A55], the pest or weed control at 500 g/ha in test [2] (setting [8]) worked out at 80%; in [3] (setting [9]) it was 100%; in test [4] (setting [10]), 90%; in the test with Eleusine indica (ELEIN) (setting [11]), 100%; in test [5] (setting [12]) it was 70%; in [6] (setting [13]) it was 70%. For the same molecule, the pest or weed control at 500 g/ha in the test on Lolium perenne (LOLPE) (setting [14]) stood at 60%; in the test on Setaria faberi (SETFA), 100%.
For the molecule `O=c1cc(-c2cc[n+](CCS(=O)(=O)[O-])nc2)nc[nH]1` [Compound A57], the pest or weed control at 500 g/ha in test [2] (setting [8]) is 60%; in test [3] (setting [9]), 80%; in test [4] (setting [10]) it was 40%; with Eleusine indica (ELEIN) (setting [11]), 40%; in test [5] (setting [12]), 60%; in [6] (setting [13]) it was 10%. Moreover, the pest or weed control at 500 g/ha turned out to be 10% in the test on Lolium perenne (LOLPE) (setting [14]) and 60% in the test on Setaria faberi (SETFA).
Take `COc1nccc(-c2cc[n+](CCS(=O)(=O)[O-])nc2)n1` [Compound A60]: the pest or weed control at 500 g/ha in test [2] (setting [8]) was found to be 100%; in test [3] (setting [9]), 100%; in [4] (setting [10]), 90%; in the test with Eleusine indica (ELEIN) (setting [11]), 100%; in [5] (setting [12]), 70%; in [6] (setting [13]) it was 60%. Besides, the pest or weed control at 500 g/ha with Lolium perenne (LOLPE) (setting [14]) worked out at 70%; in the test on Setaria faberi (SETFA), 90%.
As for `Cc1cnc(-c2cc[n+](CCS(=O)(=O)[O-])nc2)cn1` [Compound A61], the pest or weed control at 500 g/ha in [2] (setting [8]) came out at 80%; in [3] (setting [9]) it was 100%; in test [4] (setting [10]), 90%; in the test on Eleusine indica (ELEIN) (setting [11]) it was 100%; in [5] (setting [12]), 90%; in test [6] (setting [13]), 50%. Further, the pest or weed control at 500 g/ha in the test on Lolium perenne (LOLPE) (setting [14]) was 70%; in the test with Setaria faberi (SETFA) it was 100%.
Take `Nc1cc(-c2cc[n+](CCC(=O)O)nc2)ncn1` [Compound A163]: the pest or weed control at 500 g/ha in test [1] (Application Rate 500 g/Ha, Method A, read-out: Control of weed species after post-emergence application, AMAPA (100=total damage to plant; 0=no damage to plant)) turned out to be 100%; in [2] (Application Rate 500 g/Ha, Method A, read-out: Control of weed species after post-emergence application, CHEAL (100=total damage to plant; 0=no damage to plant)), 60%; in test [3] (Application Rate 500 g/Ha, Method A, read-out: Control of weed species after post-emergence application, DIGSA (100=total damage to plant; 0=no damage to plant)), 50%; in test [4] (Application Rate 500 g/Ha, Method A, read-out: Control of weed species after post-emergence application, ECHCG (100=total damage to plant; 0=no damage to plant)), 40%; with Eleusine indica (ELEIN) (Application Rate 500 g/Ha, Method A, read-out: Control of weed species after post-emergence application, ELEIN (100=total damage to plant; 0=no damage to plant)), 90%; in test [5] (Application Rate 500 g/Ha, Method A, read-out: Control of weed species after post-emergence application, EPHHL (100=total damage to plant; 0=no damage to plant)), 50%. For the same molecule, the pest or weed control at 500 g/ha turned out to be 30% in test [6] (Application Rate 500 g/Ha, Method A, read-out: Control of weed species after post-emergence application, IPOHE (100=total damage to plant; 0=no damage to plant)) and 70% in the test on Lolium perenne (LOLPE) (Application Rate 500 g/Ha, Method A, read-out: Control of weed species after post-emergence application, LOLPE (100=total damage to plant; 0=no damage to plant)).
